Reference: PubChem BioAssay (NCI)
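Abbreviation: GI50, concentration required for 50% inhibition of growth. At the TGI there is no net growth.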

Key:
Experiment in all cases: growth of human tumour cells (NCI), 384-well format
[1] = test system: NCI/ADR-RES ovarian
[2] = test system: HCC-2998 colon
[3] = test system: RPMI-8226 leukemia
[4] = test system: NCI-H226 lung
[5] = test system: OVCAR-3 ovarian
[6] = test system: HOP-62 NSCLC
[7] = test system: 786-0 renal
[8] = test system: SN12C renal
[9] = test system: A549 NSCLC
[10] = test system: SF-268 CNS
[11] = test system: A498 renal
[12] = test system: MDA-MB-435 melanoma
[13] = test system: UACC-62 melanoma
[14] = test system: CAKI-1 renal
[15] = test system: PC-3 prostate
[16] = test system: HCT-15 colon
[17] = test system: DU-145 prostate
[18] = test system: SK-MEL-28 melanoma
[19] = test system: T-47D breast
[20] = test system: SF-295 CNS
[21] = test system: ACHN renal
[22] = test system: OVCAR-4 ovarian
[23] = test system: KM12 colon
[24] = test system: RXF 393 renal
[25] = test system: CCRF-CEM leukemia
[26] = test system: SW-620 colon
[27] = test system: NCI-H460 NSCLC
[28] = test system: MCF7 breast
[29] = test system: LOX IMVI melanoma
[30] = test system: HS 578T breast
[31] = test system: IGROV1 ovarian
[32] = test system: SNB-19 CNS
[33] = test system: HCT-116 colon
[34] = test system: MDA-MB-468 breast
[35] = test system: SR leukemia
[36] = test system: MOLT-4 leukemia
[37] = test system: TK-10 renal
[38] = test system: NCI-H322M lung
[39] = test system: SK-MEL-5 melanoma
[40] = test system: UO-31 renal
[41] = test system: OVCAR-8 ovarian
[42] = test system: NCI-H522 lung
[43] = test system: SK-OV-3 ovarian
[44] = test system: HT29 colon
[45] = test system: U251 glioblastoma
[46] = test system: BT-549 breast
[47] = test system: SF-539 CNS
[48] = test system: HL-60(TB) leukemia
[49] = test system: K-562 leukemia
[50] = test system: EKVX NSCLC
[51] = test system: MALME-3M melanoma
[52] = test system: UACC-257 melanoma
[53] = test system: COLO 205 colon
[54] = test system: NCI-H23 lung
[55] = test system: MDA-MB-231 breast
[56] = test system: SNB-75 CNS
[57] = test system: HOP-92 NSCLC
[58] = test system: M14 melanoma

CN1CCN(c2ccc(Nc3ncc4cc(C#N)c(=O)n(C5CCCC5)c4n3)cc2)CC1
GI50 [1]: 8.59 µM
TGI [1]: 34.9 µM
GI50 [2]: 1.8 µM
TGI [2]: 18.5 µM
GI50 [3]: 0.0798 µM
TGI [3]: 0.818 µM
GI50 [4]: 0.457 µM
TGI [4]: 13.8 µM
GI50 [5]: 3.1 µM
TGI [5]: 14.4 µM
GI50 [6]: 2.43 µM
TGI [6]: 14.6 µM
GI50 [7]: 0.755 µM
TGI [7]: 28.2 µM
GI50 [8]: 0.271 µM
TGI [8]: 4.43 µM
GI50 [9]: 1.04 µM
TGI [9]: 16.1 µM
GI50 [10]: 1.65 µM
TGI [10]: 12.6 µM
GI50 [11]: 1.09 µM
TGI [11]: 7.46 µM
GI50 [12]: 3.37 µM
TGI [12]: 66.9 µM
GI50 [13]: 1.4 µM
TGI [13]: 23.6 µM
GI50 [14]: 0.259 µM
TGI [14]: 3.09 µM
GI50 [15]: 0.819 µM
TGI [15]: 46.5 µM
GI50 [16]: 0.837 µM
TGI [16]: 15.4 µM
GI50 [17]: 1.56 µM
TGI [17]: 25.8 µM
GI50 [18]: 8.46 µM
TGI [18]: 72.1 µM
GI50 [19]: 7.4 µM
TGI [19]: > 100 µM
GI50 [20]: 0.632 µM
TGI [20]: 19.8 µM
GI50 [21]: 0.521 µM
TGI [21]: 22.9 µM
GI50 [22]: 27.1 µM
TGI [22]: > 100 µM
GI50 [23]: 1.02 µM
TGI [23]: 55.5 µM
GI50 [24]: 0.727 µM
TGI [24]: 3.14 µM
GI50 [25]: 0.365 µM
TGI [25]: 1.72 µM
GI50 [26]: 0.728 µM
TGI [26]: 28 µM
GI50 [27]: 0.271 µM
TGI [27]: 11 µM
GI50 [28]: 0.299 µM
TGI [28]: 3.68 µM
GI50 [29]: 0.799 µM
TGI [29]: 13.9 µM
GI50 [30]: 1.42 µM
TGI [30]: 3.95 µM
GI50 [31]: 0.674 µM
TGI [31]: 11 µM
GI50 [32]: 3.17 µM
TGI [32]: > 100 µM
GI50 [33]: 0.372 µM
TGI [33]: 11.1 µM
GI50 [34]: 1.89 µM
TGI [34]: 4.31 µM
GI50 [35]: 0.498 µM
TGI [35]: 1 µM
GI50 [36]: 0.141 µM
TGI [36]: 0.532 µM
GI50 [37]: 1.32 µM
TGI [37]: 12.4 µM
GI50 [38]: 2.22 µM
TGI [38]: 47.8 µM
GI50 [39]: 10.9 µM
TGI [39]: 26.6 µM
GI50 [40]: 0.551 µM
TGI [40]: 14.8 µM
GI50 [41]: 4.65 µM
TGI [41]: 37.2 µM
GI50 [42]: 1.2 µM
TGI [42]: 18.9 µM
GI50 [43]: 1.04 µM
TGI [43]: 29.9 µM
GI50 [44]: 1.18 µM
TGI [44]: > 100 µM
GI50 [45]: 1.6 µM
TGI [45]: 22.4 µM
GI50 [46]: 1.75 µM
TGI [46]: 12.2 µM
GI50 [47]: 2.23 µM
TGI [47]: 13.2 µM
GI50 [48]: 0.0949 µM
TGI [48]: 1.38 µM
GI50 [49]: 0.462 µM
TGI [49]: > 100 µM
GI50 [50]: 6.55 µM
TGI [50]: 27.9 µM
GI50 [51]: 0.535 µM
TGI [51]: 92.9 µM
GI50 [52]: 10.8 µM
TGI [52]: 32.1 µM
GI50 [53]: 0.981 µM
TGI [53]: > 100 µM
GI50 [54]: 1.23 µM
TGI [54]: 18.7 µM
GI50 [55]: 0.718 µM
TGI [55]: > 100 µM
GI50 [56]: 1.8 µM
TGI [56]: 10.9 µM
GI50 [57]: 2.03 µM
TGI [57]: 29 µM
GI50 [58]: 1.07 µM
TGI [58]: > 100 µM
